Here are results for 1 compound from article PMC11365428 (The Journal of Biological Chemistry, 2024).

pEC50: −log10 of the molar value. Non-standard residues stand in square brackets, D forms with d. Residues, ends and D or L forms follow the SMILES beside them. pGlu = O=C1CC[C@@H](C(=O)O)N1

Assay [1] has as its target T1, apTKRPR-A (Aplysia californica, UniProt A0AAU7SSZ1).
T1 sequence (A0AAU7SSZ1 1-398): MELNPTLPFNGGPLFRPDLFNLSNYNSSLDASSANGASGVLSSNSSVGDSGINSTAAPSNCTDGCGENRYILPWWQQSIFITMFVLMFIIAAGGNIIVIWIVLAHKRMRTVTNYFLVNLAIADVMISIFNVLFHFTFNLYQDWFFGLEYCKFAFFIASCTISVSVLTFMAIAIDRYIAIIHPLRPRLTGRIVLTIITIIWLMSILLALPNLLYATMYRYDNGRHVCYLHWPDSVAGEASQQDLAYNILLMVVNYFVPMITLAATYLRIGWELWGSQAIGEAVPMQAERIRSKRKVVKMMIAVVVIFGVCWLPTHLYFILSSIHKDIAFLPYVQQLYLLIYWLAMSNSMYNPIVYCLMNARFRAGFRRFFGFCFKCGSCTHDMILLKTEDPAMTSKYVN
Description: IP1 accumulation assay, CHO-K1 cells transiently expressing apTKRPR-A. Type of assay: cell-based. Here is the method: To express putative Aplysia receptors transiently in CHO-K1 cells, the cDNAs were subcloned into the pcDNA3.1(+) or pcDNA3.1(+)-FLAG (for ELISA experiments only, see “Cell surface expression analysis by ELISA” section) expression vector. On the day before transfection, the CHO-K1 cells were passaged into 60 mm diameter tissue culture–treated dishes, and the transfection experiments were performed when the cells were grown to 70 to 90% confluence. CHO-K1 cells were transfected with the cDNA plasmid constructs using Turbofect Transfection reagent (Thermo Fisher Scientific, R0531), following the manufacturer’s instructions. […] The DNA/TurboFect mixture dropwise was then added to the dish, and the cells were incubated at 37 °C in a humidified incubator containing 5% CO2 overnight.
On the third day, the activation of the putative receptors was detected by monitoring intracellular IP1 concentration using an IP-One Gq kit (Cisbio, 62IPAPEB) in Tecan Spark. Except for using 0.5x reagent, all other procedures were performed following the manufacturer’s instructions. IP1 accumulation assay measures the accumulation of IP1, which is hydrolyzed from the second messenger, and inositol triphosphate. Inositol triphosphate is generated by the Gαq pathway when a GPCR is activated by an appropriate ligand.

For assay [2], the target named is T1, apTKRPR-A. Description: Cell surface expression by ELISA after ligand exposure, FLAG-apTKRPR-A. The format is cell-based. The settings on record: 10 µM, different durations, compared with 0 min, n = 4. Here is the method:
Cell surface expression determination of apTKRPRs and mutant receptors, all with FLAG tags, was performed using a procedure modified from previous work ([64], [122], [123], [124]). Specifically, CHO-K1 cells were cultured in F-12K medium (Gibco, 21127-022) with 10% FBS (Genial, G11-70500) at 37 °C in a humidified incubator containing 5% CO2. When the cells were grown to 70 to 90% confluence, transfection experiments were performed (see “Cell culture and transfection” section). After 24 h, transfected cells were plated in 96-well white clear-bottom cell culture plates (Corning, 3610) at a density of 20,000 cells in 100 μl per well and incubated overnight. The following day, culture media was aspirated and cells were washed twice with 200 μl of 1× PBS (Procell, PB180327). Then, 100 μl of 1× PBS containing 5% (w/v) BSA was added to each well and incubated at room temperature. After 30 min, 100 μl of 1:10,000 anti-FLAG M2-horseradish peroxidase conjugate (Sigma-Aldrich, Cat A8592) was added to each well and incubated for 30 min at 37 °C. Cells were washed twice with 200 μl of 1× PBS and then incubated with 200 μl of TMB Chromogen Solution (Sangon Biotech, E661007) for 30 min at 37 °C in the dark. Finally, 50 μl of ELISA Stopping Solution (Sangon Biotech, E661006) was added to each well to stop the reaction. The absorbance at 450 nm was measured using a Tecan Spark microplate reader. […]

`CC(C)C[C@H](NC(=O)[C@H](Cc1c[nH]cn1)NC(=O)[C@@H]1CCCN1C(=O)[C@@H]1CCC(=O)N1)C(=O)NCC(=O)N[C@@H](Cc1ccccc1)C(=O)N[C@@H](Cc1c[nH]cn1)C(=O)NCC(=O)N[C@@H](CO)C(=O)N[C@@H](CCCNC(=N)N)C(N)=O` [apTKRP-2b] ([pGlu]PHLGFHGSR-NH2): at apTKRPR-A [1], the pEC50 is 7.43. In addition, the “IP1 response of apTKRPR-A in screening” value on apTKRPR-A [1] (10^-5 M compared with 10^-10 M (control), n = 3, no Gαq cotransfection) is recorded as “responded”. For the same compound, the “cell surface receptor expression of apTKRPR-A after agonist exposure” value on apTKRPR-A [2] was “significant loss of receptor expression”.
